Test results from publication PMC12067444, “Synthesis and Pharmacological Characterization of Novel Peripheral Cannabinoid-1 Receptor Blockers Based on a Tricyclic Scaffold” (Journal of Medicinal Chemistry, 2025).

Legend:
C57BL/6J mice = assay: Assessment of centrally mediated hyperactivity (locomotor activity); type: in vivo, mouse
Procedure: The activity profiles of the mice were evaluated using the Promethion High-Definition Behavioral Phenotyping System (Sable Instruments, Inc., Las Vegas, NV, USA). MetaScreen software version 2.2.18.0 was employed for data acquisition and instrument control, while ExpeData version 1.8.4 was used for processing raw data. An analysis script detailing all aspects of the data transformation was utilized. Mice with unrestricted access to food and water were subjected to a standard 12 h light/12 h dark cycle, comprising a 16-h acclimation period followed by 24 h of sampling. Ambulatory activity and position were concurrently quantified by the number of disruptions of the infrared beams in three dimensions (XYZ) with a beam spacing of 0.25 cm.
This experiment aimed to evaluate the capacity of BNS808 and rimonabant (used as a positive control) to elicit centrally mediated hyperactivity in mice (a known feature of a brain penetrant compound). For this purpose, male wild-type C57BL/6J mice received a single dose of either the vehicle, rimonabant (10 mg/kg, PO), or BNS808 (1 or 10 mg/kg, PO). The locomotor activity was quantified by measuring the disruptions of infrared beams in two dimensions (XY) for 1 h. Each testing session involved evaluating two groups at a time.

[1] = tested on: diet-induced obese C57Bl/6J mice; assay: Chronic treatment of diet-induced obese (DIO) mice; type: in vivo, mouse; settings: vs vehicle
Procedure: To induce diet-induced obesity, the mice were fed a high-fat diet (HFD) containing 60% of calories from fat, 20% from protein, and 20% carbohydrates (Research Diet, D12492) for 16 weeks. HFD-fed obese mice were administered either vehicle or BNS808 (in SEDDs) orally at 1 mg/kg (dosing volume of 1 mL/kg) for 24 days. Daily monitoring of body weight was conducted throughout the experimental period. Total body fat and lean masses were assessed using the EchoMRI-100H (Echo Medical Systems LLC, Houston, TX, USA). At the end of week 20, mice were euthanized via cervical dislocation under anesthesia. Various tissues, including the kidneys, brain, liver, fat pads, and muscles, were harvested and snap-frozen or fixed in buffered 4% formalin. Trunk blood samples were collected for biochemical parameters analysis. […]

TA100 = assay: Mini-Ames assay, strain TA100; type: cell-based; settings: for F value: fold vs DMSO; for Growth of lawn: replicates 1-3
Procedure: (§1) Mini Am es assay. To conduct the assay, top agar was melted with a microwave and maintained at a temper atur e ≥47 °C in a water bath. T he assay was performed using a heat block set to 45 °C ± 2 °C. 12 × 75 mm test tubes were prepared in duplicates. For each concentration, the following components were added sequentially to a test tube:
(§2) […] The mixture was vortexed and then dispensed into w ells using a dispo sable pipette. The plates wer e then incubated at 37±2 °C for approximately 48 to 72 hours.
(§3) BBbbbb BBBBbbbb BBBB = AAAAbbbbbbAAbb nnnnnnbbbbbb bboo bbbbAAbbbbbbbbnnbbbb oobbbb bbbb eeee dd bbbbbb AAbbbbnn gg AAAAbbbbbbAAbb nnnnnnbbbbbb bbBB bbbbAAbbbbbbbbnnbbbb BBbbbb DDDDDDDD nn bbAAbbbbaaAAbb AAbbbbnnaa The mutagenicity of the compound was determined by evaluating the number of revertant colonies in strains TA98 and TA100. A compound was […]
(§4) related and if the fold increase in revertants (F) was equal to or greater than 2 for […]
(§5) background lawn growth on the agar plates. A scoring system ranging from 0 to 4 […]
(§6) complete cytotoxicity, while scores 1, 2, and 3 represented 25%, 50%, and 75% growth, respectively. A score of 4 signified full '100%' growth. The background […]
(§7) background lawn and required magnification for visualization. […]

mice = assay: Cataleptic behavior (bar test) induced by WIN-55,212; type: in vivo, mouse; settings: rimonabant 10 mg/kg PO, BNS808 1 mg/kg; 30 min before WIN-55,212 3 mg/kg IP; bar test at 60 min
Procedure: Catalepsy was assayed using the bar test. Mice were taken out of their home cages, and their forepaws were placed on a horizontal bar measuring 0.5 cm in diameter, positioned 4 cm above the bench surface. Typically, vehicle-treated mice released the bar within 2 s. Cataleptic behavior was defined as the mice remaining motionless, grasping onto the bar, with an arbitrary cutoff of 30 s. The CB1R antagonists, including rimonabant at doses 1 and 10 mg/kg and BNS808 at a dose of 1 mg/kg, were administered 30 min before the IP injection of 3 mg/kg WIN-55,212 (a CB1R agonist). The test was conducted 60 min after the administration of the agonist.

[2] = tested on: bacteria strains TA98, TA100; assay: Mini-Ames assay, overall result; type: cell-based
Procedure: as §1, §2, §3, §4, §5, §6, §7

In the case of `O=S(=O)(NC1CCCOc2c1nn(-c1ccccc1Cl)c2-c1ccc(Cl)cc1)c1ccc(Cl)cc1` (centres unmarked) [BNS808, 4-chloro-N-[2-(2-chlorophenyl)-3-(4-chlorophenyl)-5,6,7,8-tetrahydrooxepino[3,2-c]pyrazol-8-yl]benzenesulfonamide], the CNS-mediated side effects (C57BL/6J mice; 1 mg/kg and 10 mg/kg PO, mice) is reported as “No CNS-mediated side effects were observed”, the “locomotor activity (centrally mediated hyperactivity)” value (C57BL/6J mice; single dose 1 or 10 mg/kg PO, male C57Bl/6J mice, 1 h) is reported as “no significant changes in locomotor activity” and the body weight ([1]; 1 mg/kg/day PO (in SEDDs) for 24 days) is reported as “reduced body weight”. The fasting blood glucose ([1]; 1 mg/kg/day PO for 24 days) was “reduced the glucose levels in fasting conditions”, the “glucose homeostasis (ipGTT)” value ([1]; 1 mg/kg/day PO for 24 days) was “trend toward substantial effects” and the “lean body mass (EchoMRI)” value ([1]; 1 mg/kg/day PO for 24 days) was “significant increase in lean body mass”. For the same compound, the “total body fat (EchoMRI)” value ([1]; 1 mg/kg/day PO for 24 days) was “reduction in total body fat”, the HDL levels ([1]; 1 mg/kg/day for 24 days) was “without affecting HDL levels” and the HDL/LDL ratio ([1]; 1 mg/kg/day for 24 days) was “increased HDL/LDL ratio”. The LDL levels ([1]; 1 mg/kg/day for 24 days) was “reduced LDL levels”, the “hepatic steatosis and hepatocellular damage (histology)” value ([1]; 1 mg/kg/day for 24 days) was “reversing hepatic steatosis and hepatocellular damage” and the “liver enzymes (ALT, AST, ALP)” value ([1]; 1 mg/kg/day for 24 days) was “significant reduction”. For the same compound, the liver triglyceride content ([1]; 1 mg/kg/day for 24 days) was “significant reduction in liver triglyceride content”, the total cholesterol ([1]; 1 mg/kg/day for 24 days) was “reduced total cholesterol” and the “triglycerides levels (serum)” value ([1]; 1 mg/kg/day for 24 days) was “reduced”. For the same compound, the “Number of revertants MEAN” value (TA100; TA100, +S9, 31.25 μg/well) was 40.67, the solubility (TA100; TA100, +S9, 31.25 μg/well) was “P0” and the F value (TA100; TA100, +S9, 31.25 μg/well) was 1.03. The Growth of lawn (TA100; TA100, +S9, 31.25 μg/well) was 4 (A score of 4 signified full '100%' growth), the “Number of revertants MEAN” value (TA100; TA100, +S9, 62.5 μg/well) was 34.67 and the solubility (TA100; TA100, +S9, 62.5 μg/well) was “P0”. For the same compound, the F value (TA100; TA100, +S9, 62.5 μg/well) was 0.87, the Growth of lawn (TA100; TA100, +S9, 62.5 μg/well) was 4 (A score of 4 signified full '100%' growth) and the “Number of revertants MEAN” value (TA100; TA100, +S9, 125 μg/well) was 30.00. For the same compound, the solubility (TA100; TA100, +S9, 125 μg/well) was “P0”, the F value (TA100; TA100, +S9, 125 μg/well) was 0.76 and the Growth of lawn (TA100; TA100, +S9, 125 μg/well) was 4 (A score of 4 signified full '100%' growth). The “Number of revertants MEAN” value (TA100; TA100, +S9, 250 μg/well) was 29.33, the solubility (TA100; TA100, +S9, 250 μg/well) was “P1 (0~20% growth of crystals)” and the F value (TA100; TA100, +S9, 250 μg/well) was 0.74. The Growth of lawn (TA100; TA100, +S9, 250 μg/well) was 4 (A score of 4 signified full '100%' growth), the “Number of revertants MEAN” value (TA100; TA100, +S9, 500 μg/well) was 19.33 and the solubility (TA100; TA100, +S9, 500 μg/well) was “P2 (20%~60% growth of crystals)”. The F value (TA100; TA100, +S9, 500 μg/well) was 0.49, the Growth of lawn (TA100; TA100, +S9, 500 μg/well) was 4 (A score of 4 signified full '100%' growth) and the “Number of revertants MEAN” value (TA100; TA100, +S9, 1000 μg/well) was 16.67. For the same compound, the solubility (TA100; TA100, +S9, 1000 μg/well) was “P3 (60%~100% growth of crystals)”, the F value (TA100; TA100, +S9, 1000 μg/well) was 0.42 and the Growth of lawn (TA100; TA100, +S9, 1000 μg/well) was 4 (A score of 4 signified full '100%' growth). For the same compound, the “Number of revertants MEAN” value (TA100; TA100, -S9, 31.25 μg/well) was 29.00, the solubility (TA100; TA100, -S9, 31.25 μg/well) was “P0” and the F value (TA100; TA100, -S9, 31.25 μg/well) was 0.97. For the same compound, the Growth of lawn (TA100; TA100, -S9, 31.25 μg/well) was 4 (A score of 4 signified full '100%' growth), the “Number of revertants MEAN” value (TA100; TA100, -S9, 62.5 μg/well) was 23.67 and the solubility (TA100; TA100, -S9, 62.5 μg/well) was “P0”. The F value (TA100; TA100, -S9, 62.5 μg/well) was 0.79, the Growth of lawn (TA100; TA100, -S9, 62.5 μg/well) was 4 (A score of 4 signified full '100%' growth) and the “Number of revertants MEAN” value (TA100; TA100, -S9, 125 μg/well) was 22.67. For the same compound, the solubility (TA100; TA100, -S9, 125 μg/well) was “P0”, the F value (TA100; TA100, -S9, 125 μg/well) was 0.76 and the Growth of lawn (TA100; TA100, -S9, 125 μg/well) was 4 (A score of 4 signified full '100%' growth). The “Number of revertants MEAN” value (TA100; TA100, -S9, 250 μg/well) was 23.00, the solubility (TA100; TA100, -S9, 250 μg/well) was “P1 (0~20% growth of crystals)” and the F value (TA100; TA100, -S9, 250 μg/well) was 0.77. The Growth of lawn (TA100; TA100, -S9, 250 μg/well) was 4 (A score of 4 signified full '100%' growth), the “Number of revertants MEAN” value (TA100; TA100, -S9, 500 μg/well) was 18.67 and the solubility (TA100; TA100, -S9, 500 μg/well) was “P2 (20%~60% growth of crystals)”. For the same compound, the F value (TA100; TA100, -S9, 500 μg/well) was 0.62, the Growth of lawn (TA100; TA100, -S9, 500 μg/well) was 4 (A score of 4 signified full '100%' growth) and the “blockade of WIN-55,212-induced cataleptic behavior” value (mice) was “only rimonabant (10 mg/kg, PO) blocked the cataleptic behavior”. For the same compound, the “toxicity in mini-Ames assay” value ([2]; 31.25 to 1000 μg/well, TA98 and TA100) was “no toxicity” and the “mini-Ames assay (mutagenic effect)” value ([2]; TA98 and TA100, with and without S9) was “nonmutagenic ^b”.
